According to patent US9394290B2, “Selective CYP11B1 inhibitors for the treatment of cortisol dependent diseases” (UNIVERSITAET DES SAARLANDES CAMPUS SAARBRUECKEN, priority 2010, dated 2016):
pIC50: −log10 of the molar value.

Legend:
human CYP11B1 = human CYP11B1 (Homo sapiens (Human), UniProt P15538); assay: Cellular assay for CYP11B1 inhibition (V79MZh11B1 hamster fibroblasts, substrate 11-deoxycorticosterone); details: for sf: selectivity factor: IC50 (CYP11B2)/IC50 (CYP11B1): ratio IC50 (CYP11B2)/IC50 (CYP11B1); for pIC50: read-out: IC50 value CYP11B1, Hamster fibroblasts expressing human CYP11B1, substrate 11-deoxycorticosterone, 100 nM, mean of at least three experiments
human CYP11B1, sequence (P15538 25-503): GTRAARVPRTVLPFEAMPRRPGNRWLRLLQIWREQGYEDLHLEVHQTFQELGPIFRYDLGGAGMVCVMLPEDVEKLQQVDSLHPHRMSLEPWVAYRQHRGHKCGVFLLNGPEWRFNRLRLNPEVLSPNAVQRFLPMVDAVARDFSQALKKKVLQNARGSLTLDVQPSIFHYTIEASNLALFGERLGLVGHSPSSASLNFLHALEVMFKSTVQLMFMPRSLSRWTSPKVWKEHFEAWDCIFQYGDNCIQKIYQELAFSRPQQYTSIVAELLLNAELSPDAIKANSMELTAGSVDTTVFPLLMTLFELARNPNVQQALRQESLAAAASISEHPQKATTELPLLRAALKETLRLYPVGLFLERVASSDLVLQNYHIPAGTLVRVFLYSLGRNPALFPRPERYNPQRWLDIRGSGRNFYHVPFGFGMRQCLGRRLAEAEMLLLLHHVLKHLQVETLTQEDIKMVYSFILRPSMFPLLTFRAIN

human CYP11B2 = human CYP11B2 (Homo sapiens (Human), UniProt P19099); assay: Cellular assay for CYP11B2 inhibition (V79MZh11B2 hamster fibroblasts, substrate 11-deoxycorticosterone); details: for pIC50: read-out: IC50 value CYP11B2, Hamster fibroblasts expressing human CYP11B2, 100 nM, mean of at least three experiments, n.i. = no inhibition at an inhibitor concentration of 500 nM
human CYP11B2, sequence (P19099 25-503): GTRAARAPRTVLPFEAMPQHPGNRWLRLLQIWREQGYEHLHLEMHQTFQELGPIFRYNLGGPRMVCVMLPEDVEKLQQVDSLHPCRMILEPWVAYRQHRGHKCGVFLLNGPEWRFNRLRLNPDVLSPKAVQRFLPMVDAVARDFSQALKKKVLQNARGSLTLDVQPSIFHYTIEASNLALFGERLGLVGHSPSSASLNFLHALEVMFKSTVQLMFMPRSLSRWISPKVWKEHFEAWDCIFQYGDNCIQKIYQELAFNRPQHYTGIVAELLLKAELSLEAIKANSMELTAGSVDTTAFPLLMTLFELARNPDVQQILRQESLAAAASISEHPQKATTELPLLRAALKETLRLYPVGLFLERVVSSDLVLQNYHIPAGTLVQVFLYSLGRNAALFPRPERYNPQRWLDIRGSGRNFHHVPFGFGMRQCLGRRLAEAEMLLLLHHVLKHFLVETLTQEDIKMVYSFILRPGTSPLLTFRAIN

human CYP17 = human CYP17 (Homo sapiens (Human), UniProt P05093); assay: CYP17 inhibition assay (membrane fraction of E. coli expressing human CYP17, substrate progesterone); format: biochemical; details: 25 μM, inhibitor concentration 2.0 μM; for inhibition at 2 µM: read-out: inhibition (%) CYP 17
human CYP17, sequence (P05093 whole entry): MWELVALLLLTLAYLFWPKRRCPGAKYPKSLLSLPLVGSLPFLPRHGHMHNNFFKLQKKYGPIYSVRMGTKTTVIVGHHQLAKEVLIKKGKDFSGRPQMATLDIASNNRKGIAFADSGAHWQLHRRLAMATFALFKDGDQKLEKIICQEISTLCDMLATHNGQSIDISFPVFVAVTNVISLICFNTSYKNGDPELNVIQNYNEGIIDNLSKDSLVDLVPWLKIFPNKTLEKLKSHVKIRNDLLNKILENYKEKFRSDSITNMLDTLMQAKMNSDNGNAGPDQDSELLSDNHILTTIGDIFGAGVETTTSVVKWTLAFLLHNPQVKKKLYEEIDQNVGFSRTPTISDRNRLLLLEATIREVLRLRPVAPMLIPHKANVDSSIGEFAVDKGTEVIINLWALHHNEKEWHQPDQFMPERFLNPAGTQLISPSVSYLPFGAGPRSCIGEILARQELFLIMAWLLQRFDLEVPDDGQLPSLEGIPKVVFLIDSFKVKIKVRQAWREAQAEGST
Experimental: Recombinant E. coli pJL17/OR coexpressing human CYP17 and rat NADPH-P450-reductase were grown and stored as described by Ehmer et al. (J. Steroid Biochem. Mol. Biol., 2000, 75, 57-63)
For isolation of membrane fractions, 5 ml of bacterial suspension with an OD578 of 50 were washed using phosphate buffer (0.05 M, pH 7.4, 1 mM MgCl2, 0.1 mM EDTA and 0.1 mM dithiothreitol). Bacteria were harvested by centrifugation (2000×g) and the pellet was resuspended in 10 ml ice-cold TES buffer (0.1 M tris-acetate, pH 7.8, 0.5 mM EDTA, 0.5 M sucrose). Lysozyme was added with 10 ml of ice-cold water resulting in a concentration of 0.2 mg/ml followed by incubation for 30 min on ice with continuous shaking. Spheroplasts were harvested by centrifugation (12000×g, 10 min), and resuspended in 4 ml of ice-cold phosphate buffer (the same as described above plus 0.5 mM phenylmethylsulfonylfluoride (PMSF)).
After that spheroplasts were sonicated on ice (pulse 20 s on, 30 s off, five times), using a sonicator Sonopuls HD60 (Bandelin, Berlin, Germany) at maximum power. Unbroken cells and debris were pelleted at 3000×g for 7 min, and the supernatant was centrifuged at 50000×g for 20 min at 4° C. The membrane pellet was resuspended in 2 ml of phosphate buffer (the same as described above) with 20% glycerol using an ultra-turrax T25 (IKA-Labortechnik, Staufen, Germany). Protein concentration was determined by the method of Lowry.
The assay was performed as follows: a solution of 6.25 nmol progesterone (in 5 μl methanol) in 140 μl phosphate buffer (0.05 M, pH 7.4, 1 mM MgCl2, 0.1 mM EDTA and 0.1 mM dithiothreitol), 50 μl NADPH generating system (in phosphate buffer with 10 mM NADP, 100 mM glucose-6-phosphate and 2.5 units of glucose-6-phosphate-dehydrogenase) and inhibitor (in 5 μl DMSO) was pre-incubated at 37° C. for 5 min. Control cups were supplemented with 5 μl DMSO without inhibitor. The reaction was started by adding 50 μl of a 1:5 diluted membrane suspension in phosphate buffer (0.8-1.0 mg protein per ml). The maximum DMSO concentration in each sample was 2%. After mixing, incubation was performed for 30 min at 37° C. Subsequently the reaction was stopped with 50 μl 1 N HCl.
Extraction of the steroids was performed by addition of 1.0 ml ethyl acetate and vigorous shaking for 1 min. After a centrifugation step (5 min, 2500×g) the organic phase (0.9 ml) was transferred into a fresh cup containing 0.25 ml of incubation buffer and 50 μl 1 N HCl and mixed again. After centrifugation, 0.8 ml ethyl acetate solution was evaporated to dryness in a fresh cup. After that the steroids were redissolved in solvent for HPLC analysis (Hutschenreuter et. al. J. Enz. Inhib. Med. Chem. 2004, 19, 17-32).
The above experiment was conducted at least three times and a mean value for the CYP17 inhibition calculated.

Human placental CYP19 = Human placental CYP19 (Homo sapiens (Human), UniProt P11511); assay: CYP19 (aromatase) assay, human placental microsomes, 3H2O release; format: biochemical; details: substrate androstenedione, 500 nM, inhibitor concentration 500 nM; for inhibition at 0.5 µM: read-out: inhibition (%) CYP 19
Human placental CYP19, sequence (P11511 whole entry): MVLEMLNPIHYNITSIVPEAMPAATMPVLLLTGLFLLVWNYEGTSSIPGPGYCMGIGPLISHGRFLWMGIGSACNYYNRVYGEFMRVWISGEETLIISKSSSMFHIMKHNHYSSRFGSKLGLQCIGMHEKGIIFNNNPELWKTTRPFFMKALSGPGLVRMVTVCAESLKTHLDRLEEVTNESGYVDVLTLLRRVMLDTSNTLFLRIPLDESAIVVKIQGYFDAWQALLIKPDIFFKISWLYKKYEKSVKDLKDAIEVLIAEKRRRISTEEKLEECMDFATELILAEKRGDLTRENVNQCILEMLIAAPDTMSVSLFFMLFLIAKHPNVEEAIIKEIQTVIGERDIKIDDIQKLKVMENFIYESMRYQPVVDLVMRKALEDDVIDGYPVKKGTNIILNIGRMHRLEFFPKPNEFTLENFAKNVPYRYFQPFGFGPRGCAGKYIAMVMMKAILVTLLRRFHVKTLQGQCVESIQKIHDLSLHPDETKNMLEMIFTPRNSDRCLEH
Experimental: The enzyme was obtained from the microsomal fraction of freshly delivered human term placental tissue according to the procedure of Thompson and Siiteri (Thompson, E. A.; Siiteri, P. K. J. Biol. Chem. 1974, 249, 5364).
The isolated microsomes were suspended in a minimum volume of phosphate buffer (0.05 M, pH 7.4, 20% glycerol). Additionally, DTT (dithiothreitol, 10 mM) and EDTA (1 mM) were added to protect the enzyme from degradation. The enzyme preparation was stored at −70° C.
The assay was performed monitoring enzyme activity by measuring the ^3H2O formed from [1β-^3H]androstenedione during aromatization (Hartmann et al. J. Med. Chem. 1986, 29, 1362-1369). […] The test compounds were dissolved in DMSO and diluted with buffer. The final DMSO concentration in the control and inhibitor incubation was 2%. Each tube was pre-incubated for 5 min at 30° C. in a water bath. Microsomal protein was added to start the reaction (0.1 mg). The total volume for each incubation was 0.25 ml. The reaction was terminated by the addition of 200 μl of a cold 1 mM HgCl2 solution. After addition of 200 μl of an aqueous dextran-coated charcoal (DCC) suspension (2%), the vials were shaken for 20 min and centrifuged at 1500×g for 5 min to separate the charcoal-absorbed steroids. The supernatant was assayed for ^3H2O by counting in a scintillation mixture using a β-counter. The calculation of the IC50 values was performed by plotting the percent inhibition vs. the concentration of inhibitor on a semi-log plot.
The above experiment was conducted at least three times and a mean value for the CYP19 inhibition calculated.

Row | SMILES | sf: selectivity factor: IC50 (CYP11B2)/IC50 (CYP11B1) (human CYP11B1) | pIC50 (human CYP11B1) | pIC50 (human CYP11B2) | inhibition at 2 µM (human CYP17) [%] | inhibition at 0.5 µM (Human placental CYP19) [%] | IC50 value CYP11B2 (human CYP11B2; Hamster fibroblasts expressing human CYP11B2, 100 nM, mean of at least three experiments, n.i. = no inhibition at an inhibitor concentration of 500 nM) | inhibition (%) CYP 17 (human CYP17) [%] | inhibition (%) CYP 19 (Human placental CYP19) [%]
1 | COc1ccccc1-c1ccc(Cn2ccnc2)cn1 [Compound 12, 5-Imidazol-1-ylmethyl-2-(2-methoxy-phenyl)pyridine] | 26 | 6.78 | 5.36 | 5 | 4 | – | – | –
2 | Nc1ccccc1-c1ccc(Cn2ccnc2)cn1 [Compound 15, 2-(5-Imidazol-1-ylmethyl-pyridin-2-yl)-phenylamine] | 21 | 7.00 | 5.67 | 6 | 0 | – | – | –
3 | Nc1cccc(-c2ccc(Cn3ccnc3)cn2)c1 [Compound 16, 3-(5-Imidazol-1-ylmethyl-pyridin-2-yl)-phenylamine] | 31 | 6.96 | 5.47 | 3 | 2 | – | – | –
4 | Nc1ccc(-c2ccc(Cn3ccnc3)cn2)cc1 [Compound 17, 4-(5-Imidazol-1-ylmethyl-pyridin-2-yl)-phenylamine] | 5 | 6.97 | 6.28 | 4 | 1 | – | – | –
5 | Cc1ccc(-c2ccc(Cn3ccnc3)cn2)cc1N [Compound 18, 5-(5-Imidazol-1-ylmethyl-pyridin-2-yl)-2-methyl-phenylamine] | – | 6.27 | < 6.00 | 3 | 0 | – | – | –
6 | c1ccc(N(c2ccccc2)c2ccc(-c3ccc(Cn4ccnc4)cn3)cc2)cc1 [Compound 22, [4-(5-Imidazol-1-ylmethyl-pyridin-2-yl)-phenyl]-diphenyl-amine] | – | 6.21 | – | 2 | 1 | n.i.^d | – | –
7 | c1ccc2c(-c3ccc(Cn4ccnc4)cn3)cccc2c1 [Compound 23, 5-Imidazol-1-ylmethyl-2-naphthalen-1-yl-pyridine] | 49 | 7.38 | 5.68 | 8 | 5 | – | – | –
8 | c1ccc(-c2cc(Cn3ccnc3)cnc2-c2ccccc2)cc1 [Compound 25, 5-Imidazol-1-ylmethyl-2,3-diphenyl-pyridine] | 2.4 | 6.44 | 6.07 | 3 | 0 | – | – | –
9 | c1csc(-c2ccc(Cn3ccnc3)cn2)c1 [Compound 31, 5-Imidazol-1-ylmethyl-2-thiophen-2-yl-pyridine] | 17 | 7.12 | 5.91 | 8 | 3 | – | – | –
10 | c1cn(Cc2ccc(-c3ccsc3)nc2)cn1 [Compound 32, 5-Imidazol-1-ylmethyl-2-thiophen-3-yl-pyridine] | 26 | 6.90 | 5.49 | 3 | 0 | – | – | –
11 | O=Cc1ccc(-c2ccc(Cn3ccnc3)cn2)s1 [Compound 34, 5-(5-Imidazol-1-ylmethyl-pyridin-2-yl)-thiophene-2-carbaldehyde] | 16 | 7.21 | 6.01 | 5 | 0 | – | – | –
12 | c1ccc(-c2cc(Cn3ccnc3)cnc2-c2ccccc2)cc1 [Compound 35, 5-Imidazol-1-ylmethyl-2,3-diphenyl-pyridine] | 6 | 7.14 | 6.38 | – | – | – | 5 | 30
13 | c1csc(-c2ncccc2Cn2ccnc2)c1 [Compound 36, 3-Imidazol-1-ylmethyl-2-thiophen-2-yl-pyridine] | 16 | 7.80 | 6.60 | 0 | 19 | – | – | –
14 | c1ccc2c(-c3ccc(Cn4ccnc4)cn3)csc2c1 [Compound 38, 2-Benzo[b]thiophen-3-yl-5-imidazol-1-ylmethyl-pyridine] | 29 | 7.40 | 5.94 | 4 | 0 | – | – | –
15 | c1coc(-c2ccc(Cn3ccnc3)cn2)c1 [Compound 39, 2-Furan-2-yl-5-imidazol-1-ylmethyl-pyridine] | 31 | 6.78 | 5.29 | 1 | 0 | – | – | –
16 | c1cn(Cc2ccc(-c3ccoc3)nc2)cn1 [Compound 40, 2-Furan-3-yl-5-imidazol-1-ylmethyl-pyridine] | 37 | 7.12 | 5.55 | 8 | 0 | – | – | –
17 | c1coc(-c2cc(Cn3ccnc3)cnc2-c2ccco2)c1 [Compound 42, 2,3-Di-furan-2-yl-5-imidazol-1-ylmethyl-pyridine] | 29 | 7.54 | 6.08 | 6.7 | 2.2 | – | – | –
